According to ChEMBL document CHEMBL4138254 (ACS Med Chem Lett, 2017):
≈ marks a conversion by molar mass, not a printed value.

Tests used:
in vitro [1] = details: human, Caco-2
Description: Apparent permeability across apical to basolateral side in human Caco2 cells at 10 uM measured up to 90 mins

physchem [2] = details: pH 4.5 buffer solution
Description: Aqueous solubility of the compound in pH 4.5 buffer solution after 24 hrs by LC-UV analysis

[3] = target: Voltage-gated inwardly rectifying potassium channel KCNH2 (Homo sapiens, UniProt Q12809)
Description: Inhibition of human ERG expressed in HEK293 cells by patch clamp assay

Autotaxin [4] = target: T1, Autotaxin (Rattus norvegicus, UniProt Q64610); assay: Inhibition of ATX in rat whole blood using LPA 17:0 as substrate after 1 hr by LC-MS/MS analysis
Autotaxin [5] = target: T1, Autotaxin; assay: Inhibition of recombinant rat ATX using LPC 18:1 as substrate after 2 hrs by rapidfire/MS-based analysis
physchem [6] = details: pH 2.2 buffer solution
Description: Aqueous solubility of the compound in pH 2.2 buffer solution after 24 hrs by LC-UV analysis

in vitro [7] = details: rat, liver microsomes
Description: Clearance in rat liver microsomes at 1 uM in presence of NADPH by LC-MS/MS analysis relative to hepatic blood flow

physchem [8] = details: pH 6.8 buffer solution
Description: Aqueous solubility of the compound in pH 6.8 buffer solution after 24 hrs by LC-UV analysis

in vitro [9] = details: human, liver microsomes
Description: Clearance in human liver microsomes at 1 uM in presence of NADPH by LC-MS/MS analysis relative to hepatic blood flow

Sequence of Voltage-gated inwardly rectifying potassium channel KCNH2 (Q12809 whole entry): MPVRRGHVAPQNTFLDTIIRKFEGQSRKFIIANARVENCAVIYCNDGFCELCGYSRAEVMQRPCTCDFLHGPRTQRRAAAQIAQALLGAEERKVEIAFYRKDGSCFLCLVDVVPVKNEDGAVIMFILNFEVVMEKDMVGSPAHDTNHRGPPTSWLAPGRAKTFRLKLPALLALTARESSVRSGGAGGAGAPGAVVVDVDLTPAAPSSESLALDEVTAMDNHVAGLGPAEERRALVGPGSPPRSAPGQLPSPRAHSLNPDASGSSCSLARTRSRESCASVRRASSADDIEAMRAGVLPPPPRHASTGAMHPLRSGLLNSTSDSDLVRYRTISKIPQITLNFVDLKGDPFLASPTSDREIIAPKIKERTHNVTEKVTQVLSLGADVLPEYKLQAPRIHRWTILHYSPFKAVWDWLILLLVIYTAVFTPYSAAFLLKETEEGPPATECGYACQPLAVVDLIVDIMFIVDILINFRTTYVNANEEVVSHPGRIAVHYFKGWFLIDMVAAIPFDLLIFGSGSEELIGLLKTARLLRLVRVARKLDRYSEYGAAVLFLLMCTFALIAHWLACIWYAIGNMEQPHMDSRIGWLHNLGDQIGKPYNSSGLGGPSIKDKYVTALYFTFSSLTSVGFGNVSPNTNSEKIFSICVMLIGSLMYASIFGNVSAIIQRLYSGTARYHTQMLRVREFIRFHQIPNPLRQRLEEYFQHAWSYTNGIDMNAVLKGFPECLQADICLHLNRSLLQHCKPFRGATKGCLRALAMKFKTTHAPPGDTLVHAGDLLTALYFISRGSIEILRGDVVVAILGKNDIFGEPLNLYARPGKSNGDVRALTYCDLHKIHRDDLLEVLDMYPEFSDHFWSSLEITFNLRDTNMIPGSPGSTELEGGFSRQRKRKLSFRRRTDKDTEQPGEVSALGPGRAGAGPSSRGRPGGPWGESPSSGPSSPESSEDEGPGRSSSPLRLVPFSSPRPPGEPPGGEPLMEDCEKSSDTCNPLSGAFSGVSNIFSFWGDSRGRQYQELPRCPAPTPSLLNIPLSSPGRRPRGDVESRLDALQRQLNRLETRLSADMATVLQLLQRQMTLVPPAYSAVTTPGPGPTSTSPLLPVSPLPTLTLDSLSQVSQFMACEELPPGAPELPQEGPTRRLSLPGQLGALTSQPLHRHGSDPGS

Row | SMILES | Papp A→B at 1.5 h, 10 µM (in vitro [1]) [×10⁻⁶ cm/s] | solubility at 24 h (physchem [2]) [µg/mL] | IC50 (Autotaxin [4]) [nM] | IC50 (Autotaxin [5]) [nM] | solubility at 24 h (physchem [6]) [µg/mL] | hepatic extraction ratio at 1 µM (in vitro [7]) | solubility at 24 h (physchem [8]) [µg/mL] | hepatic extraction ratio at 1 µM (in vitro [9]) | IC50 [3] [nM]
1 | Cc1cc(COC(=O)N2C[C@@H]3[C@@H](CNC(=O)c4ccc5[nH]c(=O)oc5c4)[C@@H]3C2)no1 | 2 | > 93 | – | 1670 | > 86 | < 0.22 | 63 (≈ 153 µM) | < 0.23 | > 10000
2 | O=C(CCN1CCN(C(=O)OCc2cc(Cl)cc(Cl)c2)CC1)c1ccc2[nH]c(=O)oc2c1 | – | – | 307 | – | – | – | – | – | 480
3 | N#Cc1cc(COC(=O)N2C[C@@H]3[C@@H](CNC(=O)NCCCc4cnn[nH]4)[C@@H]3C2)cc(C(=O)OC(F)(F)F)c1 | – | – | 65 | 5.5 | – | – | – | – | –
4 | O=C(NC[C@@H]1[C@H]2CN(C(=O)NCc3cc(Cl)cc(Cl)c3)C[C@@H]12)c1ccc2[nH]c(=O)oc2c1 | 2 | < 1 | 77 | 13.9 | < 1 | 0.35 | < 1 | 0.36 | > 10000
5 | O=C(NC[C@@H]1[C@H]2CN(C(=O)/C=C/c3cc(Cl)cc(Cl)c3)C[C@@H]12)c1ccc2[nH]c(=O)oc2c1 | 38 | < 1 | 1900 | 1.7 | < 1 | > 0.22 | < 1 | 0.25 | 4200
6 | N#Cc1cc(COC(=O)N2C[C@@H]3[C@@H](CNC(=O)c4ccc5[nH]c(=O)oc5c4)[C@@H]3C2)cc(OC(F)(F)F)c1 | 44 | < 1 | 94 | 1.9 | < 1 | 0.56 | < 1 | 0.48 | > 10000

More lines, in order of falling IC50 (Autotaxin [4]), values ahead:

Row | Papp A→B at 1.5 h, 10 µM (in vitro [1]) [×10⁻⁶ cm/s] | solubility at 24 h (physchem [2]) [µg/mL] | IC50 (Autotaxin [4]) [nM] | IC50 (Autotaxin [5]) [nM] | solubility at 24 h (physchem [6]) [µg/mL] | hepatic extraction ratio at 1 µM (in vitro [7]) | solubility at 24 h (physchem [8]) [µg/mL] | hepatic extraction ratio at 1 µM (in vitro [9]) | SMILES | IC50 [3] [nM]
7 | 137 | < 1 | 56 | 3.1 | < 1 | 0.64 | < 1 | 0.41 | O=C(NC[C@@H]1[C@H]2CN(C(=O)OCc3cc(Cl)cc(Cl)c3)C[C@@H]12)c1ccc2[nH]c(=O)oc2c1 | > 10000
8 | 7 | 26 (≈ 48.7 µM) | 33 | 1.3 | 32 (≈ 60 µM) | 0.43 | 5 (≈ 9.37 µM) | 0.44 | N#Cc1cc(COC(=O)N2C[C@@H]3[C@@H](CNC(=O)N4CCc5[nH]nnc5C4)[C@@H]3C2)cc(C(=O)OC(F)(F)F)c1 | > 10000
9 | 18 | < 1 | 7 | 2.3 | < 1 | 0.88 | < 1 | 0.94 | O=C(NC[C@@H]1[C@H]2CN(C(=O)CCc3cc(Cl)cc(Cl)c3)C[C@@H]12)c1ccc2[nH]c(=O)oc2c1 | 8100
